Measurements: ChEMBL document CHEMBL3507680, “University of Dundee, Gates Library screen for HepG2 cell viability”

Experiment: Human HepG2 cell viability assay in 384 well format
Format: toxicity, cell-based
Parameters: dose 125 nL, time 70.5 hour; cytotoxicity at 70.5 h: concentration not given beside the values
Conditions: HepG2 cells, read-out: Inhibition

| SMILES | cytotoxicity at 70.5 h |
| --- | --- |
| Cc1cnn(C2CN(CC(O)Cn3cccn3)C2)c1 (configuration not stated) | 7.89% |
| CCOC(=O)CNC(=O)c1scnc1C | -8.4% |
| CC(NC(=O)NCCCc1n[nH]c(N)c1C#N)c1ccc(F)c(F)c1 (configuration not stated) | -2.56% |
| Cc1cccc2[nH]c(C3CCCN(Cc4ccc(CO)o4)C3)nc12 (configuration not stated) | 4.96% |
| CC(CNC(=O)c1ccc(Cl)cc1F)N1CCCC1 (configuration not stated) | -16.4% |
| O=C(C1CC=CC1)N1CC[C@@H]2O[C@@H](COCC3CCOCC3)CC[C@@H]21 | 6.54% |
| CCN(CC)c1ccc(C(=O)N2CCC(c3nc(C)no3)CC2)cn1 | -7.84% |
| O=C(NC1CC1)N1CCn2c(Cn3cccn3)cnc2C1 | -5.68% |
| CC(=O)c1cccc(OCCCC(=O)N(C)CCc2ccncc2)c1 | -10.1% |
| Cc1cc(C)c(CNC(=O)N2CCCC2c2ccccn2)c(=O)[nH]1 (configuration not stated) | -6.29% |
| COCCOc1ncccc1CNC(=O)N1CCCCCC1 | -12.7% |
| CN1C[C@@H]2CN(C(=O)NCc3cccc(F)c3)CCC[C@]2(C(=O)O)C1 | 8.66% |
| O=C(NCCc1nnc2n1CCC2)NCC1(c2ccccc2)CC1 | 14% |
| COc1cccc(OCCc2cncc(C(N)=O)c2)c1 | -9.46% |
| Cc1ccc(C2CCCN(S(C)(=O)=O)C2)nc1 (configuration not stated) | -2.08% |
| CCN(CC)S(=O)(=O)N1CCCC1c1nnc2n1CCCCC2 (configuration not stated) | -8.56% |
| N#Cc1cnc(NCCCN2C(=O)COc3ccccc32)c(Cl)c1 | 2.01% |
| CN(C)C(=O)N1CCC2(CC1)CCN(c1ncccn1)C2 | 2.39% |
| Cc1ccc(C(=O)N2CCC3(CC2)CC(NC(=O)C(C)C)CO3)cc1 (configuration not stated) | 5.27% |
| COCCC(=O)N1CC2(CCN(Cc3cccc(Cl)c3)CC2)C1 | -8.68% |
| CN1C(=O)[C@H]2CC[C@@H]1CN(C(=O)c1sccc1S(N)(=O)=O)C2 | -4.92% |
| O=C1CC2(CCCCN2C(=O)c2ccsc2)CN1CC1CC1 (configuration not stated) | 8.93% |
| CC(C)CCC(=O)Nc1ccc2oc(=O)n(CCN(C)C)c2c1 | -1.73% |

| SMILES | cytotoxicity at 70.5 h |
| --- | --- |
| CCC(=O)Nc1ccc2c(ccn2CC(=O)N(CC)CC)c1 | -3.74% |
| O=S(=O)(c1ccccc1)N1C[C@@H]2CCCCN(Cc3cccs3)[C@@H]2C1 | -17.2% |
| C1Cc2nc(CCNc3nc(C4CC4)nc4c3CCNCC4)sc2C1 | -4.01% |
| CN(Cc1cnn(C)c1)C(=O)c1ccnc(OC2CCC2)c1 | 15.8% |
| CCC1(O)CCCN(c2nc(C(C)(C)C)nc3c2cnn3C)C1 (configuration not stated) | -9.12% |
| CCN(CC(=O)NC(C)C)C(=O)c1csc(Cc2ccccc2)n1 | -9.03% |
| O=C(CO)N1CCC(c2ccnc(Nc3cc(C(F)(F)F)ccn3)n2)C1 (configuration not stated) | -3.68% |
| CC1(c2ccccc2)CCC(=O)N(CCN2CCOCC2)C1 (configuration not stated) | -5.69% |
| Cc1ccc(C2(O)CCN(C(=O)c3cccc(S(C)(=O)=O)c3)CC2)nc1 | -4.42% |
| Clc1cccc(C(CNCc2cccnc2)N2CCOCC2)c1 (configuration not stated) | 29.7% |
| CCCN(Cc1cccnc1)C1CC(C)(C)NC(C)(C)C1 | -3.34% |
| O=C(NCc1cccnc1)NCC(O)c1cccc(C(F)(F)F)c1 (configuration not stated) | -9.97% |
| Cc1nc2cc(C(=O)N3CCn4c(nnc4C4CC4)C3)ccc2s1 | -2.23% |
| CCCOCCN1CCN(c2ncnc3[nH]ccc23)CC1 | 1.69% |
| CNCC(=O)Nc1cccc(-c2cnc(NCCS(C)(=O)=O)nc2)c1 | 0.0271% |
| Cc1cc(C)n(C2CCN(S(=O)(=O)N3CCOCC3)CC2)n1 | -6.85% |
| O=C1CCC2(CCCN(C(=O)c3ccoc3)C2)CN1Cc1ccncc1 (configuration not stated) | -16.8% |
| Cc1nc(CN2CCOC(Cn3cccn3)C2)no1 (configuration not stated) | -3.79% |
| Cc1ncc(CN2CCC(CNS(=O)(=O)C3CC3)C2)cn1 (configuration not stated) | 13.4% |
| CNC(=O)c1ccc2c(c1)C1(CCN(C(C)C)CC1)C(=O)N2 | 2.6% |
| Nc1cc2c(nn1)CCN(C(=O)c1cccc3c1OCCO3)C2 | -14.7% |
| COc1cc(N2CC[C@@H]3O[C@@H](c4ccnc(C)n4)C[C@H]3C2)ncn1 | -4.55% |
| CCN(C)S(=O)(=O)N[C@H]1CN(c2ccc(F)cn2)C[C@@H]1C(C)C | -1.25% |

| SMILES | cytotoxicity at 70.5 h |
| --- | --- |
| CCOCCNc1nc(-c2ccncc2)nc2c1CCNCC2 | -4.23% |
| O=C(c1ccncc1)N1C[C@@H](OCc2cccnc2)[C@H]2OCCC[C@H]21 | -10.2% |
| CC(=O)c1ccc(-c2cnn(CC(=O)Nc3cc(C)nn3C)c2)nc1 | -13% |
| O=C(N[C@H]1CN(C2CCOCC2)C[C@@H]1C1CC1)c1cc(O)no1 | -7.33% |
| COc1cc(N2CCCC(CO)(Cc3ccccc3F)C2)ncn1 (configuration not stated) | 50.5% |
| Cc1nnc(CN2CCC3(CCC(=O)N(C4CC4)C3)CC2)o1 | 11.6% |
| CCC(NC1Cc2ccccc2C1)c1ccc(S(C)(=O)=O)cc1 (configuration not stated) | -14.8% |
| COc1ccc(Nc2c[nH]c(=O)[nH]c2=O)cc1 | 4.35% |
| Cc1cccc(CNC(Cn2cncn2)c2ccccc2)c1C (configuration not stated) | 1.21% |
| Cc1noc(C)c1CN1CC[C@H]2OCC[C@@]2(C(=O)N2CCOCC2)C1 | -4.59% |
| CNc1cc2c(nn1)CCN(C(=O)c1cccc3c1OCO3)C2 | -16.7% |
| O=C(C1CCOC1)N1CC2(CCN(c3ccccc3)C2)C1 (configuration not stated) | -0.441% |
| CS(=O)(=O)NC1CCN(C(=O)c2ccc(Br)o2)C1 (configuration not stated) | -5.52% |
| O=C(NCC1CC1)C1CCC2(CCN(C(=O)c3ccco3)CC2)O1 (configuration not stated) | -15.5% |
| CCc1ncc2c(n1)CN(C(C)C(=O)Nc1ccc(Cl)cn1)CC2 (configuration not stated) | 20.7% |
| CCc1nc(C)c(C(=O)N2C[C@@H](C(=O)O)[C@H](C3CC3)C2)s1 | -4.51% |
| CCN1C[C@H]2[C@@H](C1)N(S(=O)(=O)c1ccccc1)CC[C@H]2OC | -2.93% |
| Cc1ccc(OCC(O)CN2CCc3c(ncn3C3CC3)C2)cc1 (configuration not stated) | -4.79% |
| Cc1[nH]c(=O)sc1S(=O)(=O)N1CCCC1C(=O)NC1CC1 (configuration not stated) | -6.92% |
| CCOCc1nc(CSc2ccncc2)n(C2CCN(C)CC2)n1 | 13% |
| O=C(CN1CCCC1Cn1cccn1)NCCC1=CCCCC1 (configuration not stated) | -9.89% |
| CC(NC(=O)NCc1ccccc1)(C(=O)O)c1ccco1 (configuration not stated) | -9.81% |
| Cc1ccc(CN2C[C@H]3CN(Cc4ccccc4Cl)CCN3C2=O)cc1 | -9.42% |

| SMILES | cytotoxicity at 70.5 h |
| --- | --- |
| Cc1cccc(CN2CC[C@H]3[C@@H]2CC(=O)N3CC2CC2)n1 | -9.45% |
| CC(C)CN1C[C@H]2CCN(C(=O)NC3CCCC3)CC[C@H]2S1(=O)=O | -9.06% |
| Cc1noc(C)c1C(=O)N1C[C@H]2CCC[C@@]2(COc2ccccn2)C1 | -11.3% |
| COc1ccc(C(C(=O)O)N2CCN(C3CCCCC3)CC2)cc1OC (configuration not stated) | 13.6% |
| Cc1cc(-c2cnc(N3CCOCC3)nc2-c2ccc(C)s2)on1 | -3.57% |
| Cc1[nH]ncc1C(=O)N(CC(C)C)CC(O)c1ccc(F)cc1 (configuration not stated) | 14.2% |
| CC(Cn1ccnc1)NC(=O)NCCc1ccccn1 (configuration not stated) | -0.19% |
| COc1ccc(Cl)cc1NC(=O)N(C)CC(O)COCCOC(C)C (configuration not stated) | -4.88% |
| O=C([C@H]1CC[C@@H]2[C@@H](CCN2Cc2nccs2)O1)N1CCCCO1 | -5.06% |
| CC(O)CN1CCC(CNCc2ccc(S(C)(=O)=O)cc2)CC1 (configuration not stated) | -3.17% |
| Cc1cnn(CC2CCCN2C(=O)c2ccccc2-n2cnnn2)c1 (configuration not stated) | -4.97% |
| OC1(CN2CCC(Oc3cccc(C(F)(F)F)c3)CC2)CNCCOC1 (configuration not stated) | -15.4% |
| Cn1nc(C#N)c2c1CN(C(=O)c1ccsc1)CCC2 | 5.67% |
| Cc1cccc(C(=O)Nc2cccc3c2CCCC3)n1 | -1.46% |
| Fc1ccccc1CNc1ccnc(C2CCNCC2)c1 | 18% |
| Cn1cnc2cc(C(=O)N3CCC(c4ccccc4C(=O)O)C3)cnc21 (configuration not stated) | -8.01% |
| O=C(NCc1nncn1-c1ccccc1)C1CC1 | -1.31% |
| CCC(=O)Nc1cccc(OCC(=O)N2CC=CC2C(C)C)c1 (configuration not stated) | -22.1% |
| Cc1cccc(Nc2ccc(C3CCCCN3)cn2)n1 (configuration not stated) | 4.51% |
| CCN1CCC(CC(=O)NCCc2nc(C)cc(C)n2)CC1 | -3.38% |
| Cc1ccc(C(=O)N2CC(C)(C)[C@@](C)(O)C2)cc1N1CCNC1=O | 0.84% |
| CC(Nc1ccc(CC(=O)N(C)C)cc1)C(=O)N(C)CCC#N (configuration not stated) | -12.3% |
| CC(c1cc(F)ccc1F)N(C)C(=O)NCc1ccnc(N(C)C)c1 (configuration not stated) | 2.05% |

| SMILES | cytotoxicity at 70.5 h |
| --- | --- |
| CC[C@H]1COCCN1C(=O)CCCn1nnc(-c2ccc(F)cc2)n1 | -1.69% |
| c1ccc(-c2cc(CN3CCc4cncnc4C3)on2)cc1 | -4.72% |
| CC(NCC1CCN(CCO)CC1)c1ccc(OC(F)(F)F)cc1 (configuration not stated) | -2.01% |
| NC(=O)CN1CCCC(Cc2ccc(N)nn2)C1 (configuration not stated) | 36.2% |
| Cc1csc2c(C3CCCN(C(=O)CCn4cncn4)C3)nc(C)n12 (configuration not stated) | 1.05% |
| O=C(Cc1cccc(F)c1)NCCCNC(=O)c1cccc(O)c1 | -2.95% |
| CN1CCN(c2cccc(NC(=O)NCc3csc(N(C)C)n3)c2)C1=O | 35.3% |
| CCCc1nnc(N2CCC3(CC2)CC(=O)NC(=O)C3)o1 | 24.4% |
| CN(C)[C@H]1CCCCN(C(=O)c2cccc(N3CCS(=O)(=O)CC3)c2)C1 | -8.16% |
| CCc1nc(C)sc1CN1C[C@@H](C)[C@@](C)(O)C1 | -11.2% |
| Cc1ccccc1CC1(CO)CCCN(c2ncnc3sccc23)C1 (configuration not stated) | 31.4% |
| COC[C@@]12CCO[C@@H]1CCN(Cc1sccc1C)C2 | -10.6% |
| CCC(CO)N(Cc1ccco1)C(=O)c1ccccc1SC (configuration not stated) | 10.8% |
| COc1cc(C(=O)N2CCCC(c3cc(C)[nH]n3)C2)cc(OC)c1C (configuration not stated) | 29% |
| COCC(=O)N1CCC2(CC1)CN(c1ncccn1)CCO2 | -10.1% |
| COCc1ncc(CN2CCN(C)C(=O)C2C)cn1 (configuration not stated) | -13.5% |
| O=C(Cn1cnc2ccsc2c1=O)NCCCc1nnc2ccccn12 | 26.5% |
| Cc1[nH]c2ccc(Cl)cc2c1CCNc1ncnc2c1CCNC2 | -6.2% |
| NCc1n[nH]c(-c2ccc(F)cc2)n1 | -0.714% |
| O=C(Cc1ccsc1)N1CCC(c2n[nH]c3nccnc23)CC1 | -8.21% |
